Data as given in US6051570A, “Benzimidazole derivatives as antiulcer agents, process for their preparation and pharmaceutical compositions containing them” (Dr. Reddy's Research Foundation, priority 1998, dated 2000).
Where a name gives a salt, the structure may show the parent alone.

Key:
gastric acid secretion = assay: Gastric acid antisecretory activity in pylorus ligated rat model (intraduodenal); type: in vivo, Male wistar rats; conditions: for ED50: pylorus ligated rat, read-out: ED50 value (in vivo experiment, gastric acid secretion); for ED50 / inhibition in vivo at 10 mg/kg: intraduodenal, 2 h; for inhibition in vivo at 10 mg/kg: Rattus norvegicus
Experimental: B) Gastric acid antisecretory activity The inhibitory effect on gastric acid secretion is determined in pylorus ligated rat model according to Shay et al. ([…]., Gruenstein, H. & Siplet, H. Gastroenterology 1945, 5:43). Male wistar rats weighing about 150-200 g fasted for 24 h with ad libitum are used. Under ether anaesthesia the laparotomy is performed and pylorus portion of the stomach is isolated and ligated with surgical suture. The test drug/vehicle is administered intraduodenally and the abdominal incision is closed using Michael clips. After 2 h, the animals were sacrificed with excess ether anaesthesia and stomach is removed. The gastric contents are collected and centrifuged at 10,000 rpm for 10 min. The volume of the gastric juice is measured and acid concentration is estimated by titrating an aliquot of the gastric juice against 0.004N NaOH using phenolphthalein as the indicator. Total acid output is expressed as milliequivalents/L/kg/h and volume of gastric juice as mL/kg/h. The ED50 value for the test compound is calculated according to graphical method. Omeprazole is used as a standard compound.

H^+ /K^+ - ATPase = target: T1, H^+ /K^+ - ATPase (Oryctolagus cuniculus, UniProt P27112); assay: H+/K+-ATPase inhibition (rabbit gastric mucosa enzyme, Pi liberated by ATP hydrolysis); type: biochemical; conditions: pH 6.5, 37° C., 15 min
T1 construct: Rabbit gastric mucosa containing H^+ /K^+ - ATPase activity is isolated; from tissue; host or cells: rabbit gastric fundic mucosa, membrane fraction (sucrose-step ultracentrifugation pellet)
T1 sequence (P27112 2-1035 limits assumed): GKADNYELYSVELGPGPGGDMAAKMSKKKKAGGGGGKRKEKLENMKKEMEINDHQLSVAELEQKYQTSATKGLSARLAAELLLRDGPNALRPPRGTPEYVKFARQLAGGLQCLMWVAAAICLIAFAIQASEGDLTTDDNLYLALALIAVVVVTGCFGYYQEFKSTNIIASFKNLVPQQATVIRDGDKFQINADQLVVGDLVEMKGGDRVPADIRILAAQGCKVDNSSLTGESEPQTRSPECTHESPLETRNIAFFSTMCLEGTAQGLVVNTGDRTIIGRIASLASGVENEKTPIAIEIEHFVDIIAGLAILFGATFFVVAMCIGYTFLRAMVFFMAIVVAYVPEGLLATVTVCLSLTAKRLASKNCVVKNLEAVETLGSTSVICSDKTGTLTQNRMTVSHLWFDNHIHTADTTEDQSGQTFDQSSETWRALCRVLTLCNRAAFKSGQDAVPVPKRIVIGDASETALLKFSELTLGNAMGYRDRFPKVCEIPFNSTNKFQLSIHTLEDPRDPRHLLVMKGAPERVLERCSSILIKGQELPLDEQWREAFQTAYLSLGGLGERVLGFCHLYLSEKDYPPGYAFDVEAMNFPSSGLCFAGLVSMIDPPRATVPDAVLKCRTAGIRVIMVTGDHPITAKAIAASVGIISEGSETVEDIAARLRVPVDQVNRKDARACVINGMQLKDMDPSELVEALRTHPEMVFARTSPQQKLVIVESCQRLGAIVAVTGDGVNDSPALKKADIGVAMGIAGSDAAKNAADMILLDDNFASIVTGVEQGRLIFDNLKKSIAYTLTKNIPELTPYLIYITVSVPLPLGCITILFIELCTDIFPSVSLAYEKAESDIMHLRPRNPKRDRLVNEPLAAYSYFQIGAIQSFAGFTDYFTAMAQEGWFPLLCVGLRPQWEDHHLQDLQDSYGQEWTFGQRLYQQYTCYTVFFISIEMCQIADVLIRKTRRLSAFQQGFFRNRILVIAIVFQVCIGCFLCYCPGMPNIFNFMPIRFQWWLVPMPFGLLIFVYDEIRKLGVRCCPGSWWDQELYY
T1 sequence (P18597 whole entry partner): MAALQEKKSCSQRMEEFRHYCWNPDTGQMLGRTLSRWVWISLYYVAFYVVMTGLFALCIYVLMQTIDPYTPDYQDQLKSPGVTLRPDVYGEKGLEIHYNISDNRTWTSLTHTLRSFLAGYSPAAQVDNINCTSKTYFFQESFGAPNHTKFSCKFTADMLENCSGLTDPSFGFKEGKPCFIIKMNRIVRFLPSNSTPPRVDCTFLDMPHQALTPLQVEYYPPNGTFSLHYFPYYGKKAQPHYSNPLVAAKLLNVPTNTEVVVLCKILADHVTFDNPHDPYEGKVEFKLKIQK
Description: A) H^+ /K^+ - ATPase inhibition
The most efficient method for reducing acid-related gastrointestinal disorder is through the inhibition of proton pump on the gastric parietal cell. The proton pump (H^+ /K^+ ATPase) is a membrane bound enzyme that exchanges protons for K^+ ions across the apical surface. Associated with this is a K^+ /Cl^- cotransporter which recycles the K^+ together with the Cl^- across the apical surface where HCl is formed by the Cl^- ions together with the secreted H^+. This enzyme has an ATP hydrolyzing activity which requires intravesicular K^+.
Principle [formula] Pi liberated is estimated, the amount of Pi liberated is proportional to the enzyme activity.
(i) Preparation of H^+ /K^+ - ATPase […]
Assay is carried out according to the protocol described by Beil, R (Beil, R. Br. J. Pharmacol, 1984, 82:651). […] After incubation for 15 min. at 37° C., the reaction is stopped by adding equal volume of phosphate reagent and the Pi produced by the hydrolysis of ATP is determined by the method of Lin et al. (Lin T -I. & Morales, M. F. Anal. Biochem. 1977, 77:10). The H^+ /K^+ - ATPase activity is calculated by subtracting the basal activity (in absence of KCl) from the rate of hydrolysis of ATP in the presence of K^+. The percent inhibition were determined for the test compounds.

Structure (SMILES)	inhibition in vivo at 10 mg/kg (gastric acid secretion) [%]	also measured
COc1ccnc(C[S+]([O-])c2nc3cc(N4CCOCC4)c(F)cc3[nH]2)c1C (stereo not shown) [Example 57, 2-[[(4-Methoxy-3-methyl)pyridin-2-yl]methylsulfinyl]-6-fluoro-5-(morpholin-1-yl)-1H-benzimidazole]	–	ED50 (gastric acid secretion): 3 ± 0.2 mg/kg; IC50 (H^+ /K^+ - ATPase): 2.6 µM
COc1ccnc(C[S+]([O-])c2nc3cc(N4CCCCC4)c(F)cc3[nH]2)c1C (stereo not shown) [Example 67, 2-[[(4-Methoxy-3-methyl)pyridin-2-yl]methylsulfinyl]-6-fluoro-5-(piperidin-1-yl)-1H-benzimidazole]	100	–
COc1ccnc(C[S+]([O-])c2nc3cc(N4CCCCC4)c(F)cc3[nH]2)c1C (stereo not shown) [Example 68, 2-[[(4-Methoxy-3-methyl)pyridin-2-yl]metlhylsulfinyl]-6-fluoro-5-(piperidin-1-yl)-1H-benzimidazole, sodium salt]	–	% Inhibition at 10 mg/kg (gastric acid secretion): 100%
Cc1c(N2CCCCC2)ccnc1C[S+]([O-])c1nc2cc(N3CCCCC3)c(F)cc2[nH]1 (stereo not shown) [Example 69]	97	–
COc1ccnc(C[S+]([O-])c2nc3cc(N4CCN(C(=O)OC(C)(C)C)CC4)c(F)cc3[nH]2)c1C (stereo not shown) [Example 73, 2-[[(4-Methoxy-3methyl)pyridin-2-yl]methylsulfinyl]-6-fluoro-5-(4-t-butyloxycarbonylpiperazin-1-yl)-1H-benzimidazole]	93	–
COc1ccnc(C[S+]([O-])c2nc3cc(N4CCCCCC4)c(F)cc3[nH]2)c1C (stereo not shown) [Example 80, 2-[[(4-Methoxy-3-methyl)pyridin-2-yl]methylsulfinyl]-6-fluoro-5-(hexamethyleneimin-1-yl)-1H-benzimidazole]	100	–
COc1ccnc(C[S+]([O-])c2nc3cc(N4CCCCCC4)c(F)cc3[nH]2)c1C (stereo not shown) [Example 81, 2-[[(4-Methoxy-3-methyl)pyridin-2-yl]methylsulfinyl]-6-fluoro-5-(hexamethyleneimin-1-yl)-1H-benzimidazole, sodium salt]	–	% Inhibition at 10 mg/kg (gastric acid secretion): 100%
Cc1c(N2CCOCC2)ccnc1C[S+]([O-])c1nc2cc(N3CCCCCC3)c(F)cc2[nH]1 (stereo not shown) [Example 82, 2-[[(4-(Morpholin-1-yl)-3-methyl)pyridin-2-yl]methylsulfinyl]-6-fluoro-5-(hexamethyleneimin-1-yl)-1H-benzimidazole]	100	–
COc1ccnc(C[S+]([O-])c2nc3cc(N4CCCC4)c(F)cc3[nH]2)c1C (stereo not shown) [Example 84, 2-[[(4-Methoxy-3-methyl)pyridin-2-yl]methylsulfinyl]-6-fluoro-5-(pyrrolidin-1-yl)-1H-benzimidazole]	93	–
COc1ccnc(C[S+]([O-])c2nc3cc(N4CCOCC4)ccc3[nH]2)c1C (stereo not shown) [Example 87, 2-[[(4-Methoxy-3-methyl)pyridin-2-yl]methylsulfinyl]-5-(morpholin-1-yl)-1H-benzimidazole]	90	–
COc1ccnc(C[S+]([O-])c2nc3cc(N4CCN(C(=O)OC(C)(C)C)CC4)ccc3[nH]2)c1C (stereo not shown) [Example 90, 2-[[(4-Methoxy-3-methyl)pyridin-2-yl]methylsulfinyl]-5-(4-t-butyloxycarbonylpiperazin-1-yl)-1H-benzimidazole]	100	–
COc1ccnc(C[S+]([O-])c2nc3cc(N4CCCCCC4)ccc3[nH]2)c1C (stereo not shown) [Example 91, 2-[[-(4-Methoxy-3-methyl)pyridin-2-yl]methylsulfinyl]-5-(hexamethyleneimin-1-yl)-1H-benzimidazole]	97	–
COc1ccc2[nH]c([S+]([O-])Cc3ncc(C)c(OC)c3C)nc2c1 (stereo not shown) [Omeprazole, 2-[[(4-methoxy-3,5-dimethyl)pyridin-2-yl]methylsulfinyl]-5-methoxy-1H-benzimidazole, reference compound]	75	ED50 (gastric acid secretion): 4.96 ± 0.5 mg/kg; IC50 (H^+ /K^+ - ATPase): 4.35 ± 0.56 µM
